From patent US10624828B2, “Personal care compositions comprising a 2-pyridinol N-oxide material and an iron chelator” (The Procter & Gamble Company, priority 2017, dated 2020)
Marks after values point to notes of the source that are not given here.

What was measured:
[1] = NIST Standard Reference Database 46; cited from earlier work
[2] = system: Staphylococcus aureus ATCC 6538; assay: Combinatorial Minimum Inhibitory Concentration (cMIC), OD 620 nm; details: for MIC: minimum amount of chelant at which there is no bacteria growth: chelator alone (0 ppm piroctone olamine)
Description: A Combinatorial Minimum Inhibitory Concentration (“cMIC”) is used to determine the combinatorial effects of two chemicals on anti-bacterial activity in a tissue culture setting. Herein, the cMIC is a measure of the Minimum Inhibitory concentrations of 1-hydroxy-4-methyl-6-(2,4,4-trimethylpentyl)-2-pyridone monoethanolamine salt in combination with a chelant or vice versa.
Method Overview: • a. Each cMIC assay is run in triplicates. • b. Staphylococcus aureus ATCC 6538 is cultured on tryptic soy agar (TSA) (Oxoid CM0131) over 24 hours. The single colonies are then transferred into saline and mixed through vortex to obtain an optical density (OD) of 0.08-0.13 at 620 nm. 200 uL of this bacterial suspension is added to 19.8 mL of Mueller Hinton Broth (MHB) (BD 212322). This gives 5×10^5 cfu/mL. 100 uL of this bacteria-MHB mix is added to a 96 well flat-bottomed plate (TRP 92196). • c. 1-hydroxy-4-methyl-6-(2,4,4-trimethylpentyl)-2-pyridone monoethanolamine salt is pipetted into the wells in varying concentrations as indicated below. • d. Different Chelants are pipetted into the wells in varying concentrations, as indicated below. • e. The plates are then read using a spectrophotometer at 620 nm. This is the 0-hour reading. • f. The plates are incubated at 37° C. for 18 hours with shaking at 50 rpm. • g. The optical density of the plate is then measured using a spectrophotometer at 620 nm. • h. The OD value is calculated as subtraction of the readings between 18-hour and the 0-hour. • i. cMIC is determined as the minimal concentration of 1-hydroxy-4-methyl-6-(2,4,4-trimethylpentyl)-2-pyridone monoethanolamine salt in combination with a chelant or vice versa, corresponding to the well whose OD value is less than 10% of the OD value of the control well without 1-hydroxy-4-methyl-6-(2,4,4-trimethylpentyl)-2-pyridone monoethanolamine salt and chelator (full growth).

[3] = system: Staphylococcus aureus ATCC 6538; assay: Minimum Inhibitory Concentration (MIC), broth dilution, visual pellet reading; type: cell-based; details: S. aureus ATCC 6538, material alone, 37° C., 24 hours, average of triplicates
Description: The minimum inhibitory concentration (“MIC”) is the concentration (in ppm) of anti-bacterial agent that causes growth inhibition of bacteria so that no pellet is formed in the culture medium (as explained below in the method). […] Staphylococcus aureus ATCC 6538 is cultured onto tryptic soy agar (TSA) (Oxoid CM0131) over 24 hours. […] This gives 5×10^5 cfu/mL. […] The plate is then placed into a plastic sheet to minimize evaporation. The plate is then incubated at 37° C. for 24 hours. After 24 hours, the plate is removed and read visually to determine if a pellet is formed at the bottom of the well versus positive (without adding antibacterial material) and negative (without bacterial inoculum) growth controls. […] The experiment is carried out in triplicates and the MIC values are determined by the average of the results.

[4] = 3.125 ppm piroctone olamine combined with chelator (62.5 ppm DTPMP or 250 ppm DTPA), (MIC − cMIC)/MIC x 100%
[5] = 6.25 ppm piroctone olamine combined with chelator (15.6 ppm DTPMP or 125 ppm DTPA)
[6] = 6.25 ppm piroctone olamine combined with chelator (15.6 ppm DTPMP or 125 ppm DTPA), (MIC − cMIC)/MIC x 100%
[7] = in the presence of 3.125 ppm piroctone olamine
[8] = in the presence of 6.25 ppm piroctone olamine

MIC: minimum amount of chelant at which there is no bacteria growth [2]	MIC (ppm) [3] [ppm]	SMILES	Log K1 (iron binding affinity) [1]	Antibacterial Efficiency of piroctone olamine boosted by Chelator [2, 4] [%]	boost of antibacterial efficacy of piroctone olamine alone (fold) [2, 5] [fold]	Antibacterial Efficiency of piroctone olamine boosted by Chelator [2, 6] [%]	cMIC: minimum amount of chelant at which there is no bacteria growth in the presence of piroctone olamine [2, 7]	cMIC: minimum amount of chelant at which there is no bacteria growth in the presence of piroctone olamine [2, 8]	also measured
–	–	O=C(O)CC(O)(CC(=O)O)C(=O)O [Citric Acid]	11	–	–	–	–	–	–
500^# ppm	500	O=C(O)CN(CCN(CC(=O)O)CC(=O)O)CCN(CC(=O)O)CC(=O)O [DTPA, diethylenetriaminepentaacetic acid]	28	75	2	50	250^## ppm	125^## ppm	–
250^# ppm	250	O=P(O)(O)CN(CCN(CP(=O)(O)O)CP(=O)(O)O)CCN(CP(=O)(O)O)CP(=O)(O)O [DTPMP, Diethylenetriaminepentakis (methylenephosphonic acid)]	23	75	2	50	62.5^## ppm	15.6^## ppm	boost of antibacterial efficacy of piroctone olamine alone (fold) ([2]; 3.125 ppm piroctone olamine combined with chelator (62.5 ppm DTPMP or 250 ppm chelator)): 4 fold
–	–	CC(=O)N(O)CCCCCNC(=O)CCC(=O)N(O)CCCCCNC(=O)CCC(=O)N(O)CCCCCN [Desferrioxamine, reference compound]	31	–	–	–	–	–	–
–	–	CC(C(=O)O)N(CC(=O)O)CC(=O)O (stereo not shown) [MGDA, Methylglycine diacetic acid]	16	–	–	–	–	–	–
–	–	Cc1cc(CC(C)CC(C)(C)C)n(O)c(=O)c1.NCCO (stereo not shown) [reference compound]	–	–	–	–	–	–	Antibacterial Efficiency of piroctone olamine boosted by Chelator ([2]; 12.5 ppm piroctone olamine, 0 ppm chelator): 0; cMIC: minimum amount of piroctone olamine at which there is no bacteria growth in the presence of chelant ([2]; in the presence of 125 ppm DTPA): 6.25** ppm; cMIC: minimum amount of piroctone olamine at which there is no bacteria growth in the presence of chelant ([2]; in the presence of 250 ppm DTPA): 3.125** ppm; MICpiroctone olamine: minimum amount of the salt at which there is no bacteria growth ([2]; piroctone olamine alone (0 ppm chelator)): 12.5* ppm; MIC ([3]; Staphylococcus aureus, ATCC6538): 12.5 µg/mL
